Experimental data from ChEMBL document CHEMBL1201862, “PubChem BioAssay data set” (2004).
Where a name gives a salt, the structure may show the parent alone. Activity calls are given as the source filed them.

Key:
Vero = assay: cells; type: functional; details: Chlorocebus sabaeus
[1] = target: Glucose-6-phosphate 1-dehydrogenase (Homo sapiens, UniProt P11413); assay: inhibition of Homo sapiens G6PD, dose series – biochemical, fluorescence, selectivity assay for P. falciparum G6PD inhibitor project, dose response (AID 504792); type: functional
[2] = target: Bifunctional protein GlmU (Mycobacterium tuberculosis, UniProt P9WMN3); assay: Inhibitors of Mycobacterial Glucosamine-1-phosphate acetyl transferase (GlmU). Secondary screen.; parameters: species or system Mycobacterium tuberculosis H37Rv
[3] = viability of HCT116 lacking mutant beta-catenin – cell-based, human colon tumor, dose response (AID 1045); type: functional;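 note: HCT116 colon tumor cells with beta catenin knocked out; cells exposed to compound for 60 hours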
[4] = target: Heat shock protein HSP 90-alpha (Homo sapiens, UniProt P07900); type: functional, organism-based
[5] = target: T1, Type-1 angiotensin II receptor (Homo sapiens, UniProt P30556); assay: antagonism of angiotensin II type 1 receptor – cell-based, uHTS hits, selectivity assay for APJ receptor antagonist project, dose response (AID 463214); type: functional;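 note: antagonist potency against angiotensin II stimulated AT1 response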
T1 sequence (P30556 whole entry): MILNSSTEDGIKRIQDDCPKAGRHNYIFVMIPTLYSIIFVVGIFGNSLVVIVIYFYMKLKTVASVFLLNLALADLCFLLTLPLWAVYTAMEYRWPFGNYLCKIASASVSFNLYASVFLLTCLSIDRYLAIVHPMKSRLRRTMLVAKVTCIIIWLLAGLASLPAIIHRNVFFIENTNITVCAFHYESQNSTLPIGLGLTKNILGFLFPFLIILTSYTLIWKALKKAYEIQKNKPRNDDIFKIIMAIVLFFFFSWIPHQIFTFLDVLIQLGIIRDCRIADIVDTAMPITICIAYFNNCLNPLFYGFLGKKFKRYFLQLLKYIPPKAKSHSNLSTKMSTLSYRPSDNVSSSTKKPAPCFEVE

[6] = viability of PTEN-deleted HCT116 cells – cell-based, HCT116 PTEN knockout, dose response (AID 1047); type: functional;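 note: HCT116 colon tumor cells with PTEN knocked out; cells exposed to compound for 60 hours before readout; potency for loss of cell viability measured by luminescence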
[7] = NIH-3T3 fibroblast cytotoxicity, dose response, cytotoxicity control, cell-based, fluorescence, Alamar Blue, secondary assay (AID 2327); type: functional;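 note: NIH-3T3 mouse fibroblasts cultured with fluconazole at 8 µg/mL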
[8] = fluconazole-exposed Candida albicans growth modulators – fluorescence, retest, confirmation (AID 2467); type: functional, cell-based
Large T antigen = Large T antigen (Simian virus 40, UniProt P03070); type: functional, Betapolyomavirus macacae;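 note: Confirmatory-stage PubChem screen for compounds that inhibit SV40 T antigen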
Beta-galactosidase = Beta-galactosidase (Escherichia coli, UniProt Q8VNN2); assay: PubChem AID 485352; type: functional
[9] = Potency on glucagon-like peptide 1 release, dose-response in NCI-H716 cell line, half maximal inhibitory concentration (AID 1117344); type: functional, cell-based
[10] = glucagon-like peptide-1 release potency in STC-1, concentration-response, half-maximal inhibitory concentration in the STC-1 line (AID 1117345); type: functional, cell-based
[11] = IC50 of insulin release inhibition, rat insulinoma INS-1E line, 5 mM glucose, cell-based (AID 1117331); type: functional
Protein Tat = Protein Tat (Human immunodeficiency virus type 1 group M subtype B (isolate HXB2)(HIV-1), UniProt P04608); type: functional;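 note: tat binding to TAR RNA read out by fluorescence polarization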
[12] = viability loss in HeLa cells – cytotoxicity control for MgcRacGAP inhibitor project, dose response (AID 624300); type: functional
Nonstructural protein 1 = Nonstructural protein 1 (Influenza A virus, UniProt Q194T2); type: functional, Influenza A virus (A/California/07/2009(H1N1))
[13] = viability loss in THP-1 monocytes – THP-1 cells, cytotoxicity control for Vif-APOBEC3G degradation inhibitor project, dose response (AID 1117359); type: functional; details: THP-1
Protein skinhead-1 = target: T2, Protein skinhead-1 (Caenorhabditis elegans, UniProt P34707); type: functional
T2 sequence (P34707 whole entry): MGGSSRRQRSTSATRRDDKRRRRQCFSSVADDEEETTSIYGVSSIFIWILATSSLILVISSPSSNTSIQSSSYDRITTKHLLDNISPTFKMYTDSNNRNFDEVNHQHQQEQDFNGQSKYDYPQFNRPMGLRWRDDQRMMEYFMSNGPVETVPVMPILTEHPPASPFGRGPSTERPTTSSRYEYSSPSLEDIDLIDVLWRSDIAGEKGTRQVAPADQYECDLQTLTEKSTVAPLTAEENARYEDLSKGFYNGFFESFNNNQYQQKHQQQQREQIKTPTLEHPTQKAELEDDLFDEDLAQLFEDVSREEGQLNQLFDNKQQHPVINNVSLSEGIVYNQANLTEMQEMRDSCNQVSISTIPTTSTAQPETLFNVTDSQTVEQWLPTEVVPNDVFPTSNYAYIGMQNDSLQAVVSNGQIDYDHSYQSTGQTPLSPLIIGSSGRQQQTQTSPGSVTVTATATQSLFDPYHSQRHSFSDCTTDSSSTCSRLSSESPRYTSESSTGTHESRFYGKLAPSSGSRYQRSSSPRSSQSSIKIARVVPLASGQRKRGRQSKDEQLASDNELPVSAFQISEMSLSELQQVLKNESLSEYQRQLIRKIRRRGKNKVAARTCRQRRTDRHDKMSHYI

[14] = target: Glutathione-S-transferase (Schistosoma japonicum, UniProt Q26513); assay: GST-antibody interaction or FRET quenching – biochemical, TR-FRET, artefact control for Vif-APOBEC3G degradation inhibitor project, dose response (AID 1117362); type: functional
[15] = target: T3, Rac GTPase-activating protein 1 (Homo sapiens, UniProt Q9H0H5); assay: blockers of MgcRacGAP-driven Rac1 GTP hydrolysis – biochemical, ADP Hunter fluorescence, primary and confirmatory, confirmation (AID 624330); type: functional
T3 sequence (Q9H0H5 whole entry): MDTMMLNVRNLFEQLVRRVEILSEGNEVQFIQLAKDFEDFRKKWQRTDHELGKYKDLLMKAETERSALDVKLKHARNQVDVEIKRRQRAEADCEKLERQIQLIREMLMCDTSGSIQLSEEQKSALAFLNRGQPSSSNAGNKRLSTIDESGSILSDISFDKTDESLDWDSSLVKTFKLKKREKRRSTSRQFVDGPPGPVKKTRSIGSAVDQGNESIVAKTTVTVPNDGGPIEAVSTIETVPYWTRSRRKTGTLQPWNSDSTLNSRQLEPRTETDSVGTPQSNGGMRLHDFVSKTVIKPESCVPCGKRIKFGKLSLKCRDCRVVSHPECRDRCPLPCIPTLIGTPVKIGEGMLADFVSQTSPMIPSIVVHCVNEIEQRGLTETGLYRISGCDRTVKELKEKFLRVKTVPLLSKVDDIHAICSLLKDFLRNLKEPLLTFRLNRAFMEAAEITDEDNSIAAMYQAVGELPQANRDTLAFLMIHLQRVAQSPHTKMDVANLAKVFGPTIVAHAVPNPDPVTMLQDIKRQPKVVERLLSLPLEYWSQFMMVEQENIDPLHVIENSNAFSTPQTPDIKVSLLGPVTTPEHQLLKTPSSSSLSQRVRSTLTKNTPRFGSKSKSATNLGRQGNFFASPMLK

Chain of Glucose-6-phosphate 1-dehydrogenase (P11413 whole entry): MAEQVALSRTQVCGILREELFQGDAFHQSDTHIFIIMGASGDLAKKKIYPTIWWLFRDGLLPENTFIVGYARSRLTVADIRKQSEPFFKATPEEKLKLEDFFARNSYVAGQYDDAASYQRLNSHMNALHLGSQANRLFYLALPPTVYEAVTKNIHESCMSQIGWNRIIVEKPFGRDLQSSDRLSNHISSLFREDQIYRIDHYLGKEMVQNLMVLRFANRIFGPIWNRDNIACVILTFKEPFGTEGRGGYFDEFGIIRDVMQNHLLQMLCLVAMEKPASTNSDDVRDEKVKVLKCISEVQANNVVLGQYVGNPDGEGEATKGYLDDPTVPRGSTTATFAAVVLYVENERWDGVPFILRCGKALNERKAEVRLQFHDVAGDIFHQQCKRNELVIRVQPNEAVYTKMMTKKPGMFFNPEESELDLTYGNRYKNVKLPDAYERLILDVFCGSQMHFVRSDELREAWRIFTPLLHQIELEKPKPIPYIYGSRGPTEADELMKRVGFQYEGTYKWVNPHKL
Chain of Nonstructural protein 1 (Q194T2 whole entry): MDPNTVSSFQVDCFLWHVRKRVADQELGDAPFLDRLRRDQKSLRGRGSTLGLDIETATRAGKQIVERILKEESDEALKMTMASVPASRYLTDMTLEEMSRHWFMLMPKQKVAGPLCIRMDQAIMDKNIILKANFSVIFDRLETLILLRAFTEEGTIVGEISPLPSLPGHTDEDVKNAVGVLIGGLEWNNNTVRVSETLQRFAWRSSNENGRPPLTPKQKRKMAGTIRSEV
Chain of Glutathione-S-transferase (Q26513 whole entry): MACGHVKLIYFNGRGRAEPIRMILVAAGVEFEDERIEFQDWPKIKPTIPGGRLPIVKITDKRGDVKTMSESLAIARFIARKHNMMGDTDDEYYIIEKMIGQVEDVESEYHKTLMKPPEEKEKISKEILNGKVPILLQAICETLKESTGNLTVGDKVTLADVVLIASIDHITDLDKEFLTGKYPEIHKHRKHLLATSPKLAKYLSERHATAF
Chain of Beta-galactosidase (Q8VNN2 whole entry): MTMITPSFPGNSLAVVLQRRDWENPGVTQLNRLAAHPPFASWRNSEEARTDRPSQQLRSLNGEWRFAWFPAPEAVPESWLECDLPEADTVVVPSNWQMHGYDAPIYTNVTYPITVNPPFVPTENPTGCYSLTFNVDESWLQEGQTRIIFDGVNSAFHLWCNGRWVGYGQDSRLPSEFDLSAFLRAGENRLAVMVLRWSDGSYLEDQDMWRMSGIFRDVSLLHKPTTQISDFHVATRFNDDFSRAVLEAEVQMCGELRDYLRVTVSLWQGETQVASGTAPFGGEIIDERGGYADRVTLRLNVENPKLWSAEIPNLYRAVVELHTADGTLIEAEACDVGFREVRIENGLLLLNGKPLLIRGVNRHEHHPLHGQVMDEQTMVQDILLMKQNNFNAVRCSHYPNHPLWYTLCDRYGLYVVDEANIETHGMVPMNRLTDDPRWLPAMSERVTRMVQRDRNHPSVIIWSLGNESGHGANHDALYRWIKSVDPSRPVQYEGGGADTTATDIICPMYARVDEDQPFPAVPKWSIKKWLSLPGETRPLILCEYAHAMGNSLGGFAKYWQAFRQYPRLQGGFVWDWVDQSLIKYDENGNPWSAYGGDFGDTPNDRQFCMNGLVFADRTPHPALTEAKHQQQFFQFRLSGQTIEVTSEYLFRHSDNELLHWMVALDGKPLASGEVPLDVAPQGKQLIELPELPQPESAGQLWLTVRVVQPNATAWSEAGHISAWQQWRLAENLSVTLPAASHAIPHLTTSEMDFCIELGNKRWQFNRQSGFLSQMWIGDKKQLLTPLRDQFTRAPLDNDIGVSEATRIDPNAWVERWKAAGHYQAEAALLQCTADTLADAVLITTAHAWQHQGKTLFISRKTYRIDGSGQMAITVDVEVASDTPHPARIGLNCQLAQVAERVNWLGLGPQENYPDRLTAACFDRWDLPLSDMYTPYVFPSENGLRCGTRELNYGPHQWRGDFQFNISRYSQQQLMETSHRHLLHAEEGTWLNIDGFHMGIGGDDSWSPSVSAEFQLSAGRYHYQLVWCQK
Chain of Protein Tat (P04608 whole entry): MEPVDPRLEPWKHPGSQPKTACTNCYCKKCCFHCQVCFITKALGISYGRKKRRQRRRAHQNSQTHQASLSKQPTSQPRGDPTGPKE
Chain of Large T antigen (P03070 whole entry): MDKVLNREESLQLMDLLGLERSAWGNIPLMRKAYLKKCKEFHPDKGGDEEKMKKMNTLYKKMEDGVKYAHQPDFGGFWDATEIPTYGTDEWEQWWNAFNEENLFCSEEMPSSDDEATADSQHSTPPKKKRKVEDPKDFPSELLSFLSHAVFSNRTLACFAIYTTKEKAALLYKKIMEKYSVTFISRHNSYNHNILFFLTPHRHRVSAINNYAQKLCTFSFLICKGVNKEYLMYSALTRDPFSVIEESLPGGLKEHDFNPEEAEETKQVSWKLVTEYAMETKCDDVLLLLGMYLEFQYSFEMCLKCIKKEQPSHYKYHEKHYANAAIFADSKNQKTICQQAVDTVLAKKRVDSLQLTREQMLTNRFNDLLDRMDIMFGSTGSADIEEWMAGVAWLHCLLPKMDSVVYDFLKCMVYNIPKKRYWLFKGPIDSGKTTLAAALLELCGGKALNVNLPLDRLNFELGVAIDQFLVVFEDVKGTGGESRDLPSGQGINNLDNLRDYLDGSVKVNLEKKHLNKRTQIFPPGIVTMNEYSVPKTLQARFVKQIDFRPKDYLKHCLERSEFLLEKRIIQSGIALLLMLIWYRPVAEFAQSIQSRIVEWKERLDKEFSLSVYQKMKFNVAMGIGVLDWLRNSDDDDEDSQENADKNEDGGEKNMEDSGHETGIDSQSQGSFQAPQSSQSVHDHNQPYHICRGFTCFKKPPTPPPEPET
Chain of Bifunctional protein GlmU (P9WMN3 whole entry): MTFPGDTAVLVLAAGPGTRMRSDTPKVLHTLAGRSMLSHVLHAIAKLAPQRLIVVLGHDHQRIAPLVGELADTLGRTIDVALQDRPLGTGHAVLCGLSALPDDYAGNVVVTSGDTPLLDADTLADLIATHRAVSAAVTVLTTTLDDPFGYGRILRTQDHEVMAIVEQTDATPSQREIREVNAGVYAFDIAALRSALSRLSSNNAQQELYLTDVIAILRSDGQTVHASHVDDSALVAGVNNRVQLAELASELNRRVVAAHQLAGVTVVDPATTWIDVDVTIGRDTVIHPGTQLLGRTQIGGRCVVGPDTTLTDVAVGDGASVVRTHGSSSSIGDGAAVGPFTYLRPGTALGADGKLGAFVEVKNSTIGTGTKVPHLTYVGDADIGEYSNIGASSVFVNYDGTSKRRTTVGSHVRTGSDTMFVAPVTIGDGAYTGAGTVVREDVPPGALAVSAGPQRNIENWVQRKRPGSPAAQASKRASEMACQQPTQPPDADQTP

CCN(CC)C(=S)SSC(=S)N(CC)CC
CC50 (Vero): > 25 µM (active) | IC50 [1]: > 80 µM (inactive) | IC50 [2]: 85 µM (active) | EC50 [3]: 0.091 µM (active) | AC50 [4]: 5.18 µM (active) | IC50 [5]: 6.64 µM (active) | EC50 [6]: 0.087 µM (active) | EC50 [7]: > 160 µM (inconclusive) | EC50 [8]: 2.43 µM (active) | IC50 (Large T antigen): 10.7 µM (active) | EC50 (Beta-galactosidase): > 40 µM (inactive)

COc1cc2nc(N3CCN(C(=O)C4COc5ccccc5O4)CC3)nc(N)c2cc1OC (stereo not drawn) [DOXAZOSIN MESYLATE]
IC50 [9]: > 40 µM (inactive) | IC50 [10]: 10.7 µM (inactive)

CCOC(=O)c1ccccc1O [ETHYL SALICYLATE]
IC50 [11]: > 33.3 µM (inactive) | IC50 [9]: > 40 µM (inactive) | IC50 [10]: > 40 µM (inactive)

N=C1C=CC(=C(c2ccc(N)cc2)c2ccc(N)cc2)C=C1 [PARAROSANILINE]
IC50 (Protein Tat): > 100 µM (active) | CC50 [12]: 50.3 µM (active) | IC50 (Nonstructural protein 1): 6.87 µM (active) | CC50 [13]: 7.58 µM (active) | IC50 (Protein skinhead-1): 13.4 µM (active) | IC50 [14]: 4.08 µM (active) | IC50 [15]: 98 µM (active)
